Results: patent publication US20250248973A1, “CANNABINOID RECEPTOR 1 ANTAGONISTS/INVERSE AGONISTS AND USES THEREOF” (Corbus Pharmaceuticals, Inc., priority 2022, published 2025)
pIC50: −log10 of the molar value.

How the values were obtained:
[1] = target: Human CB1 Receptor-1 (hCB1) (Homo sapiens (Human), UniProt P21554); test: hCB1 Gai cyclic AMP (cAMP) TR-FRET assay, antagonism of EC80 CP55940 with forskolin; type: cell-based; conditions: hCB1 cells, 30 min pre-incubation
Procedure: (§1) Example 3. Biochemical Methods Human CB1 Receptor-1 (hCB1) and Human CB1 Receptor-1b (hCBib)
(§2) hCB1/hCB1 b Gai Cyclic AMP (cAMP) Assays: Cells were seeded in a 384-well plate at an appropriate density from frozen cells. The cAMP assays were performed according to the manufacturer's protocol using MULTISCREEN™ TR-FRET cAMP 1.0 No Wash Assay Kit. Cells (hCB1 or hCB1 b) were pre-incubated with customer compounds for 30 minutes at rt followed by addition of EC80 CP55940 concentration and Forskolin. Cells were then incubated for 20 minutes at 37C. The reaction was terminated by sequentially adding sequentially adding MULTISCREEN™ Eu-labeled cAMP and MULTISCREEN™ 650-labeled anti-cAMP antibody in lysis buffer. The plate was then incubated at rt for 30 minutes before reading fluorescent emissions at 620 nm and 665 with excitation at 314 nm on FlexStation III (Molecular Devices). The results are shown in Table 2 (“***” denotes an IC50<100 nM; “**” denotes an IC50 between 100 nM and 500 nM, and “*” denotes an IC50>500 nM).

[2] = target: Human CB1 Receptor-1b (hCB1b) (Homo sapiens (Human), UniProt P21554); test: hCB1b Gai cyclic AMP (cAMP) TR-FRET assay, antagonism of EC80 CP55940 with forskolin; type: cell-based; conditions: hCB1b cells, 30 min pre-incubation, read-out: CB1b IC50
Chain of Human CB1 Receptor-1b (hCB1b) (P21554 other isoform, or with tags, fused parts or gaps): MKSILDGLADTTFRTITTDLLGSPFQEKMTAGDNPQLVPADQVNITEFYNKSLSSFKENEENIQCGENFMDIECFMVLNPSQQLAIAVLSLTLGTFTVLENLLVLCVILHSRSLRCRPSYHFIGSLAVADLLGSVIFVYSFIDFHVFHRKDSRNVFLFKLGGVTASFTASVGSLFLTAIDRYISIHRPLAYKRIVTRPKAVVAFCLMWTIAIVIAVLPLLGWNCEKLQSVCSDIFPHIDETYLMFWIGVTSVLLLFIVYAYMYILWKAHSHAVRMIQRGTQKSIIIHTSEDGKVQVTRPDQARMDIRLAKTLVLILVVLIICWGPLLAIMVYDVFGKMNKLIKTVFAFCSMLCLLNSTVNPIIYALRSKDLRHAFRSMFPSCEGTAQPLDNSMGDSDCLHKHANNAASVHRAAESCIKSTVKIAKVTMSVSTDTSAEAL
Procedure: as §1, §2

Chain of Human CB1 Receptor-1 (hCB1) (P21554 whole entry): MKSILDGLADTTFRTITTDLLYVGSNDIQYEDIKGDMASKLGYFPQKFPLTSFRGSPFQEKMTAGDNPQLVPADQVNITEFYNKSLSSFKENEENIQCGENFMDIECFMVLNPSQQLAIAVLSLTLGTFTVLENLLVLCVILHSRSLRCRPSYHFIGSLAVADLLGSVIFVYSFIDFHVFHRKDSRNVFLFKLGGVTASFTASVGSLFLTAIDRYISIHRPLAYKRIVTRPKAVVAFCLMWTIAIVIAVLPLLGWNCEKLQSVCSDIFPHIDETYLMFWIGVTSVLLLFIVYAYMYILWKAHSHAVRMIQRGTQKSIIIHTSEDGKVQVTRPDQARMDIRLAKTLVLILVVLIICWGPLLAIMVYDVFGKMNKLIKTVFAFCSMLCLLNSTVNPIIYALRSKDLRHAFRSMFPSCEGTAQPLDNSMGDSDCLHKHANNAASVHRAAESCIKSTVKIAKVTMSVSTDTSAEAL

Structure (SMILES): C[C@H](CN/C(=N\S(=O)(=O)c1ccc(C(F)(F)F)cc1)N1C[C@H](c2ccccc2)C(c2ccc(F)cc2)=N1)S(N)(=O)=O (single isomer, unassigned) [Compound 47]
- pIC50 [1]: > 7.00
- pIC50 [2]: > 7.00

Structure (SMILES): NS(=O)(=O)N[C@H]1C[C@@H](N/C(=N\S(=O)(=O)c2ccc(C(F)(F)F)cc2)N2C[C@H](c3ccccc3)C(c3ccc(Cl)cc3)=N2)C1 (single isomer, unassigned) [Compound 245]
- pIC50 [1]: 6.30 to 7.00
- pIC50 [2]: > 7.00

Structure (SMILES): NS(=O)(=O)[C@H]1C[C@H](N/C(=N/S(=O)(=O)c2ccc(Cl)cc2)N2C[C@H](c3ccccc3)C(c3ccc(Cl)cc3)=N2)C1 (single isomer, unassigned) [Compound 115]
- pIC50 [1]: > 7.00
- pIC50 [2]: > 7.00

Structure (SMILES): NS(=O)(=O)CCN/C(=N\S(=O)(=O)c1ccc(C(F)(F)F)cc1)N1C[C@H](c2ccccc2)C(c2ccc(F)cc2)=N1 [Compound 43, (S,E)-3-(4-fluorophenyl)-4-phenyl-N-(2-sulfamoylethyl)-N′-((4-(trifluoromethyl)phenyl)sulfonyl)-4,5-dihydro-1H-pyrazole-1-carboximidamide]
- pIC50 [1]: > 7.00
- pIC50 [2]: > 7.00

Structure (SMILES): NS(=O)(=O)O[C@H]1C[C@@H](N/C(=N\S(=O)(=O)c2ccc(C(F)(F)F)cc2)N2C[C@@H](c3ccccc3)C(c3ccc(Cl)cc3)=N2)C1 [Compound 228, (1R,3s)-3-((R,E)-3-(4-chlorophenyl)-4-phenyl-N′-((4-(trifluoromethyl)phenyl)sulfonyl)-4,5-dihydro-1H-pyrazole-1-carboximidamido)cyclobutyl sulfamate]
- pIC50 [1]: < 6.30
- pIC50 [2]: > 7.00

Structure (SMILES): CN(CCNS(N)(=O)=O)/C(=N\S(=O)(=O)c1ccc(Cl)cc1)N1C[C@H](c2ccccc2)C(c2ccc(Cl)cc2)=N1 [Compound 173, (S,E)-3-(4-chlorophenyl)-N′-((4-chlorophenyl)sulfonyl)-N-methyl-4-phenyl-N-(2-(sulfamoylamino)ethyl)-4,5-dihydro-1H-pyrazole-1-carboximidamide]
- pIC50 [1]: 6.30 to 7.00
- pIC50 [2]: 6.30 to 7.00

Structure (SMILES): NS(=O)(=O)[C@H]1C[C@@H](N/C(=N/S(=O)(=O)c2ccc(Cl)cc2)N2C[C@H](c3ccccc3)C(c3ccc(Cl)cc3)=N2)C1 (single isomer, unassigned) [Compound 116]
- pIC50 [1]: 6.30 to 7.00
- pIC50 [2]: 6.30 to 7.00

Structure (SMILES): C[C@H](CN/C(=N\S(=O)(=O)c1ccc(F)cc1)N1C[C@H](c2ccccc2)C(c2ccc(Cl)cc2)=N1)S(N)(=O)=O [Compound 14, (S,E)-3-(4-chlorophenyl)-N′-((4-fluorophenyl)sulfonyl)-4-phenyl-N-((R)-2-sulfamoylpropyl)-4,5-dihydro-1H-pyrazole-1-carboximidamide]
- pIC50 [1]: > 7.00
- pIC50 [2]: > 7.00

Structure (SMILES): CN(CCS(N)(=O)=O)/C(=N/S(=O)(=O)c1ccc(Cl)cc1)N1C[C@H](c2ccccc2)C(c2ccc(Cl)cc2)=N1 [Compound 109, (S,Z)-3-(4-chlorophenyl)-N′-((4-chlorophenyl)sulfonyl)-N-methyl-4-phenyl-N-(2-sulfamoylethyl)-4,5-dihydro-1H-pyrazole-1-carboximidamide]
- pIC50 [1]: < 6.30
- pIC50 [2]: < 6.30

Structure (SMILES): NS(=O)(=O)[C@H]1CC[C@H](N/C(=N/S(=O)(=O)c2ccc(Cl)cc2)N2C[C@H](c3ccccc3)C(c3ccc(F)cc3)=N2)CC1 (single isomer, unassigned) [Compound 125]
- pIC50 [1]: 6.30 to 7.00
- pIC50 [2]: 6.30 to 7.00

Structure (SMILES): C[C@H](CS(N)(=O)=O)N/C(=N\S(=O)(=O)c1ccc(C(F)(F)F)cc1)N1C[C@H](c2ccccc2)C(c2ccc(Cl)cc2)=N1 [Compound 23, (S,E)-3-(4-chlorophenyl)-4-phenyl-N-((R)-1-sulfamoylpropan-2-yl)-N′-((4-(trifluoromethyl)phenyl)sulfonyl)-4,5-dihydro-1H-pyrazole-1-carboximidamide]
- pIC50 [1]: 6.30 to 7.00
- pIC50 [2]: 6.30 to 7.00

Structure (SMILES): NS(=O)(=O)CCCCN/C(=N\S(=O)(=O)c1ccc(Cl)cc1)N1C[C@H](c2ccccc2)C(c2ccc(Cl)cc2)=N1 [Compound 99, (S,E)-3-(4-chlorophenyl)-N′-((4-chlorophenyl)sulfonyl)-4-phenyl-N-(4-sulfamoylbutyl)-4,5-dihydro-1H-pyrazole-1-carboximidamide]
- pIC50 [1]: < 6.30
- pIC50 [2]: < 6.30

Structure (SMILES): C[C@H](CS(N)(=O)=O)N/C(=N\S(=O)(=O)c1ccc(Cl)cc1)N1CC(c2ccccc2)C(c2ccc(Cl)cc2)=N1 (stereo in doubt) [Compound 3, (R,E)-3-(4-chlorophenyl)-N′-((4-chlorophenyl)sulfonyl)-4-phenyl-N-((R)-1-sulfamoylpropan-2-yl)-4,5-dihydro-1H-pyrazole-1-carboximidamide]
- pIC50 [1]: < 6.30
- pIC50 [2]: 6.30 to 7.00

Structure (SMILES): NS(=O)(=O)O[C@H]1C[C@@H](N/C(=N\S(=O)(=O)c2ccc(C(F)(F)F)cc2)N2C[C@H](c3ccccc3)C(c3ccc(Cl)cc3)=N2)C1 [Compound 227, (1R,3s)-3-((S,E)-3-(4-chlorophenyl)-4-phenyl-N′-((4-(trifluoromethyl)phenyl)sulfonyl)-4,5-dihydro-1H-pyrazole-1-carboximidamido)cyclobutyl sulfamate]
- pIC50 [1]: 6.30 to 7.00

Structure (SMILES): C[C@@H](CS(N)(=O)=O)N/C(=N\S(=O)(=O)c1ccc(C(F)(F)F)cc1)N1C[C@@H](c2ccccc2)C(c2ccc(Cl)cc2)=N1 [Compound 26, (R,E)-3-(4-chlorophenyl)-4-phenyl-N-((S)-1-sulfamoylpropan-2-yl)-N′-((4-(trifluoromethyl)phenyl)sulfonyl)-4,5-dihydro-1H-pyrazole-1-carboximidamide]
- pIC50 [1]: > 7.00
- pIC50 [2]: 6.30 to 7.00

Structure (SMILES): NS(=O)(=O)[C@@H]1CC[C@H](N/C(=N/S(=O)(=O)c2ccc(Cl)cc2)N2C[C@H](c3ccccc3)C(c3ccc(F)cc3)=N2)C1 [Compound 149, (S,Z)-N′-((4-chlorophenyl)sulfonyl)-3-(4-fluorophenyl)-4-phenyl-N-((1S,3R)-3-sulfamoylcyclopentyl)-4,5-dihydro-1H-pyrazole-1-carboximidamide]
- pIC50 [1]: 6.30 to 7.00
- pIC50 [2]: 6.30 to 7.00

Structure (SMILES): CN(C)S(=O)(=O)CCNC(=NS(=O)(=O)c1ccc(Cl)cc1)N1C[C@H](c2ccccc2)C(c2ccc(F)cc2)=N1 [Compound 161, (S,E)-N′-((4-chlorophenyl)sulfonyl)-N-(2-(N,N-dimethylsulfamoyl)ethyl)-3-(4-fluorophenyl)-4-phenyl-4,5-dihydro-1H-pyrazole-1-carboximidamide]
- pIC50 [1]: 6.30 to 7.00
- pIC50 [2]: 6.30 to 7.00

Structure (SMILES): C[C@H](CN/C(=N\S(=O)(=O)c1ccc(F)cc1)N1C[C@H](c2ccccc2)C(c2ccc(F)cc2)=N1)S(N)(=O)=O [Compound 53, (S,E)-3-(4-fluorophenyl)-N′-((4-fluorophenyl)sulfonyl)-4-phenyl-N-((R)-2-sulfamoylpropyl)-4,5-dihydro-1H-pyrazole-1-carboximidamide]
- pIC50 [1]: > 7.00
- pIC50 [2]: > 7.00

Structure (SMILES): NS(=O)(=O)CCNC(=NS(=O)(=O)c1ccc(F)cc1)N1C[C@H](c2ccccc2)C(c2ccc(F)cc2)=N1 [Compound 51, (S)-3-(4-fluorophenyl)-N′-((4-fluorophenyl)sulfonyl)-4-phenyl-N-(2-sulfamoylethyl)-4,5-dihydro-1H-pyrazole-1-carboximidamide]
- pIC50 [1]: 6.30 to 7.00
- pIC50 [2]: 6.30 to 7.00

Structure (SMILES): NS(=O)(=O)CCNC(=NS(=O)(=O)c1cccc(C(F)(F)F)c1)N1C[C@H](c2ccccc2)C(c2ccc(Cl)cc2)=N1 [Compound 27, (S)-3-(4-chlorophenyl)-4-phenyl-N-(2-sulfamoylethyl)-N′-((3-(trifluoromethyl)phenyl)sulfonyl)-4,5-dihydro-1H-pyrazole-1-carboximidamide]
- pIC50 [1]: > 7.00
- pIC50 [2]: > 7.00

Structure (SMILES): CC(C)(CN/C(=N\S(=O)(=O)c1ccc(Cl)cc1)N1C[C@H](c2ccccc2)C(c2ccc(Cl)cc2)=N1)CS(N)(=O)=O [Compound 87, (S,E)-3-(4-chlorophenyl)-N′-((4-chlorophenyl)sulfonyl)-N-(2,2-dimethyl-3-sulfamoylpropyl)-4-phenyl-4,5-dihydro-1H-pyrazole-1-carboximidamide]
- pIC50 [1]: 6.30 to 7.00
- pIC50 [2]: 6.30 to 7.00

Structure (SMILES): NS(=O)(=O)[C@H]1CC[C@@H](N/C(=N/S(=O)(=O)c2ccc(Cl)cc2)N2C[C@H](c3ccccc3)C(c3ccc(Cl)cc3)=N2)CC1 (single isomer, unassigned) [Compound 119]
- pIC50 [1]: < 6.30
- pIC50 [2]: < 6.30

Structure (SMILES): NS(=O)(=O)[C@H]1CC[C@H](N/C(=N/S(=O)(=O)c2ccc(Cl)cc2)N2C[C@H](c3ccccc3)C(c3ccc(F)cc3)=N2)C1 [Compound 151, (S,Z)-N′-((4-chlorophenyl)sulfonyl)-3-(4-fluorophenyl)-4-phenyl-N-((1S,3S)-3-sulfamoylcyclopentyl)-4,5-dihydro-1H-pyrazole-1-carboximidamide]
- pIC50 [1]: 6.30 to 7.00
- pIC50 [2]: > 7.00

Structure (SMILES): C#Cc1ccc(S(=O)(=O)N=C(NCCS(N)(=O)=O)N2C[C@H](c3ccccc3)C(c3ccc(Cl)cc3)=N2)cc1 [Compound 21, (S)-3-(4-chlorophenyl)-N′-((4-ethynylphenyl)sulfonyl)-4-phenyl-N-(2-sulfamoylethyl)-4,5-dihydro-1H-pyrazole-1-carboximidamide]
- pIC50 [1]: > 7.00
- pIC50 [2]: > 7.00

Structure (SMILES): C#Cc1ccccc1S(=O)(=O)N=C(NCCS(N)(=O)=O)N1C[C@H](c2ccccc2)C(c2ccc(Cl)cc2)=N1 [Compound 33, (S)-3-(4-chlorophenyl)-N′-((2-ethynylphenyl)sulfonyl)-4-phenyl-N-(2-sulfamoylethyl)-4,5-dihydro-1H-pyrazole-1-carboximidamide]
- pIC50 [1]: 6.30 to 7.00
